According to patent publication US20200157086A1, “BENZAMIDE COMPOUNDS AND THEIR USE AS HERBICIDES” (BASF SE, priority 2017, published 2020):

How the values were obtained:
Assay in all cases: post-emergence greenhouse test of herbicidal activity
Type in all cases: in vivo
Details in all cases: application rate 250 g/ha, 100 = complete destruction, 0 = no damage
[1] = test system: CHEAL (Chenopodium album)
Source text: (§1) The seeds of the test plants were sown separately for each species. For the post-emergence treatment, the test plants were first grown to a height of 3 to 15 cm, depending on the plant habit, and only then treated with the active ingredients which had been suspended or emulsified in water. For this purpose, the test plants were either sown directly and grown in the same containers, or they were first grown separately as seedlings and transplanted into the test containers a few days prior to treatment. Depending on the species, the plants were kept at 10-25° C. or 20-25° C., respectively. The test period extended over 2 to 4 weeks. During this time, the plants were tended, and their response to the individual treatments was evaluated. Evaluation was carried out using a scale from 0 to 100. 100 means no emergence of the plants, or complete destruction of at least the aerial moieties, and 0 means no damage, or normal course of growth. A good herbicidal activity is given at values of at least 70 and a very good herbicidal activity is given at values of at least 85. At an application rate of 250 g/ha the following compounds were tested in post-emergence tests against: […]

[2] = test system: ECHCG (Echinocloa crus-galli)
Source text: as §1

[3] = test system: ALOMY (Alopecurus myosuroiedes)
Source text: as §1

[4] = test system: AMARE (Amaranthus retroflexus)
Source text: as §1

SMILES: CCN(C)C(=O)Nc1c(Cl)ccc(C(=O)Nc2nnnn2C)c1C [compound 3, 4-chloro-3-[[ethyl(methyl)carbamoyl]amino]-2-methyl-N-(1-methyltetrazol-5-yl)benzamide]
- herbicidal activity against CHEAL, scale from 0 to 100 [1]: 100
- herbicidal activity against ECHCG, scale from 0 to 100 [2]: 100
- herbicidal activity against ALOMY, scale from 0 to 100 [3]: 98
- herbicidal activity against AMARE, scale from 0 to 100 [4]: 100
